Source: US10975118B2, “Crystalline dipeptides useful in the synthesis of elamipretide” (Stealth BioTherapeutics Corp., priority 2018, dated 2021)
≈ marks a conversion by molar mass, not a printed value. Where a SMILES comes first, the peptide text is derived from it. [ ]: non-standard residue; d: D form. The star is where a group is joined. Dmt = Cc1cc(O)cc(C)c1C[C@H](N)C(=O)O; Boc = CC(C)(C)OC(=O)*

Experiments:
Format in all cases: physicochemical
[1] = In process precipitation results (MeOH/water); conditions: aqueous with cosolvent or surfactant or cyclodextrin
Description: In Process Precipitation Results (MeOH/Water) of Compound I: […]

[2] = Preliminary single-solvent solubility, determined by HPLC (response curve)
Description: Preliminary Single-Solvent Solubility of Compound I: […]

[3] = Preliminary precipitation studies (MeOH/water); conditions: aqueous with cosolvent or surfactant or cyclodextrin, Normal addition, 10 mL/g, 25° C.
Description: Preliminary Precipitation Studies (MeOH/Water) of Compound I: […]

[4] = Stability and handling of the isolated zwitterionic form (statement); conditions: solid isolated from CH3OH/H2O with Na2CO3
Description: Preparation of the Zwitterionic Form of Compound II
[drawing 5] • 1. The crude HCl salt is suspended in CH3OH/H2O (1/1, v/v) • 2. The suspension is heated to 45-50° C. • 3. After the clear solution is formed, an aqueous solution of Na2CO3 (1.2 eq.) is added. During the addition, the solid begins to precipitate. • 4. The suspension is stirred for 1 h at 45° C., and then cooled to 15° C. and stirred for an additional hour. • 5. The solid is isolated by filtration and dried to provide Compound II with high purity (99.4 area %) by HPLC.
Formation of zwitterionic compound led to high purity material that was stable, easily handled, and highly crystalline.

solubility ([1]; Experiment 2447-41, MeOH/Water 1:9, 13 mL/g) | solubility ([1]; Experiment 2447-47, MeOH/Water 1:5, 10 mL/g) | solubility ([2]; organic solvent or mixture, solvent EtOH (SDAG-7)) | solubility ([2]; organic solvent or mixture, solvent MeOAc) | solubility ([2]; organic solvent or mixture, solvent THF) | solubility ([2]; organic solvent or mixture, solvent iPrOAc) | solubility ([2]; solvent Water) | solubility ([3]; Experiment 1, MeOH/Water 1:3) | solubility ([3]; Experiment 2, MeOH/Water 1:5) | solubility ([3]; Experiment 3, MeOH/Water 1:9) | solubility ([3]; Experiment 4, MeOH/Water 1:19) | Compound | Stability of material [4]
2500 µg/mL (≈ 6.37 mM) | 4200 µg/mL (≈ 10.7 mM) | 155000 µg/mL (≈ 394 mM) | 18200 µg/mL (≈ 46.4 mM) | 84500 µg/mL (≈ 215 mM) | 5100 µg/mL (≈ 13 mM) | 4100 µg/mL (≈ 10.4 mM) | 7000 µg/mL (≈ 17.8 mM) | 5000 µg/mL (≈ 12.7 mM) | 3600 µg/mL (≈ 9.17 mM) | 2700 µg/mL (≈ 6.88 mM) | CC(C)(C)OC(=O)NCCCC[C@H](N)C(=O)N[C@@H](Cc1ccccc1)C(N)=O [Compound I, L-Lys(Boc)-Phe-NH2] | 
 |  |  |  |  |  |  |  |  |  |  | Cc1cc(O)cc(C)c1C[C@H](NC(=O)[C@@H](CCCNC(=N)N)NC(=O)OC(C)(C)C)C(=O)O [Compound II, Boc-D-Arg-DMT] (Boc-[dR]-[Dmt]-OH) | stable
